Assay: Cytotoxicity against human CHP100 cells after 24 hrs by MTT assay
Format: functional, cell-based
Conditions: CHP100, 24 h

SMILES: O=C1C=CC2(Oc3cccc4cccc(c34)O2)[C@H]([C@H]2CCC(=O)O2)C1
- IC50: 1.4 µM

SMILES: O=C1C=C[C@H]2O[C@H]3CC(=O)[C@@H]1[C@@H]2C31Oc2cccc3cccc(c23)O1
- IC50: 0.4 µM

SMILES: O=C1C=CC2(Oc3cccc4cccc(c34)O2)c2cccc(O)c21
- IC50: 1.6 µM

— ChEMBL document CHEMBL3739284, “Anteaglonialides A-F and Palmarumycins CE(1)-CE(3) from Anteaglonium sp. FL0768, a Fungal Endophyte of the Spikemoss Selaginella arenicola” (J Nat Prod, 2015)
